Data on five compounds can be found in patent US9340590B2 (priority 2011, dated 2016).

Holding throughout (assay): cell-based
The target of one test is hNav1.5 (Homo sapiens, UniProt Q14524).
In the next test the target is hNav1.7 (Homo sapiens, UniProt Q15858). It is filed as cell-based. To be noted: IonWorks Quattro, read-out: IWQ Use Nav1.7.
The target in a further test is hNav1.3 (Homo sapiens, UniProt Q9NY46). The conditions noted are these: IonWorks Quattro, read-out: IWQ Use Nav1.3.
Setting [1] is: clamped to −110 mV, depolarized to −10 mV, 5 min after compound, n=2.

Read-outs that look alike come from different tables or passages of the source. Positions of bridges follow the written chain, without caps; N, C: chain ends. Residues, ends and D or L forms follow the SMILES beside them.

Chain of hNav1.5 (Q14524 whole entry, looked up): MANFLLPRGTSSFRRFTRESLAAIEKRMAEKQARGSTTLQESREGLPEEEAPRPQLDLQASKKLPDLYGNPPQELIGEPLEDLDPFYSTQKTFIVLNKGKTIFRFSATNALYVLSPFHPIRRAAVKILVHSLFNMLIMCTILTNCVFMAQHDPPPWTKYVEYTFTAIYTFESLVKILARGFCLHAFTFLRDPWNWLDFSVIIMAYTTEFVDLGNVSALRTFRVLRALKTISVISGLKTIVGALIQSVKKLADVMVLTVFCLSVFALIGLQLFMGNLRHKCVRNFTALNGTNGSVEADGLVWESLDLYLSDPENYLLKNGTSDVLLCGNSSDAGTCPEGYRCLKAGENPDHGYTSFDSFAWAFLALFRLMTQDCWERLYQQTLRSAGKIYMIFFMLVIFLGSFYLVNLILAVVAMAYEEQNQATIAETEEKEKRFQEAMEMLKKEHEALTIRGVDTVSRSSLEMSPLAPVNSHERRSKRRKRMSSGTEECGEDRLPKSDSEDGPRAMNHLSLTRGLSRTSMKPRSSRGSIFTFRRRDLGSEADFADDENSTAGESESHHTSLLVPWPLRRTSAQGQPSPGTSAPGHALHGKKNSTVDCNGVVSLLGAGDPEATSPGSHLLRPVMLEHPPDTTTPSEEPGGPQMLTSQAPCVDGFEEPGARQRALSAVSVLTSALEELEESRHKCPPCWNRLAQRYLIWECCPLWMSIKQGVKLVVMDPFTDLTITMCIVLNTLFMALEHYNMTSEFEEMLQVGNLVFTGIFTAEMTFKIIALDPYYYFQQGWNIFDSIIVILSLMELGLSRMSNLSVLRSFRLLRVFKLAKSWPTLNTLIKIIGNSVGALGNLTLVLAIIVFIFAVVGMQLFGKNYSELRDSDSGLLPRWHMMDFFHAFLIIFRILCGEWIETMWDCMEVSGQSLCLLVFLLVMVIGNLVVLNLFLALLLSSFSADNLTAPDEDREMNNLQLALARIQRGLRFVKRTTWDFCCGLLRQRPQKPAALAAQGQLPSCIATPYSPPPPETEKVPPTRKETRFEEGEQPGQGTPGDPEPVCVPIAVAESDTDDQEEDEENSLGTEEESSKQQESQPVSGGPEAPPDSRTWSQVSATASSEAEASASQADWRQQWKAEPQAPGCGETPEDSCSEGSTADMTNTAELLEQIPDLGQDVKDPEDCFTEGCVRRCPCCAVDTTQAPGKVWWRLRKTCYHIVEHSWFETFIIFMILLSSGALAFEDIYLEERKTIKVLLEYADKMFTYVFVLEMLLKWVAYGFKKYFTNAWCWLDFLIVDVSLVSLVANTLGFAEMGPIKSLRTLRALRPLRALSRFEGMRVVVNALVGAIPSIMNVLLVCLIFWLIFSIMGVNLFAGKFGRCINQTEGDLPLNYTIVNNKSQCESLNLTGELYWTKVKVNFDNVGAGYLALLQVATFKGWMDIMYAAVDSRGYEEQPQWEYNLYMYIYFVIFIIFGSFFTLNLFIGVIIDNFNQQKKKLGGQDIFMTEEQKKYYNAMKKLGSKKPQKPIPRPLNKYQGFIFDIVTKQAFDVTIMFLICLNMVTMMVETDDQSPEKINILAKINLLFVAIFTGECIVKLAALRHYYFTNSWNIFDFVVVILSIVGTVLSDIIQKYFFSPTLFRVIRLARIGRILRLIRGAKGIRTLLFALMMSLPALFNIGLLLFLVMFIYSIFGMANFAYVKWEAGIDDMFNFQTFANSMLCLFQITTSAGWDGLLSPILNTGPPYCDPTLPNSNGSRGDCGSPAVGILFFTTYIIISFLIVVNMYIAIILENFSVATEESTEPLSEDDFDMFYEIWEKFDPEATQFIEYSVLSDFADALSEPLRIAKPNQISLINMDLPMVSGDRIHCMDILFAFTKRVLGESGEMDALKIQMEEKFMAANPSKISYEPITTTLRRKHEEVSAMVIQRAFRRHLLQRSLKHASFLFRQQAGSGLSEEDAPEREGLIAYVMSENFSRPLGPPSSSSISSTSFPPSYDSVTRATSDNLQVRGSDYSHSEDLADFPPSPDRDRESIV
Chain of hNav1.7 (Q15858 whole entry, looked up): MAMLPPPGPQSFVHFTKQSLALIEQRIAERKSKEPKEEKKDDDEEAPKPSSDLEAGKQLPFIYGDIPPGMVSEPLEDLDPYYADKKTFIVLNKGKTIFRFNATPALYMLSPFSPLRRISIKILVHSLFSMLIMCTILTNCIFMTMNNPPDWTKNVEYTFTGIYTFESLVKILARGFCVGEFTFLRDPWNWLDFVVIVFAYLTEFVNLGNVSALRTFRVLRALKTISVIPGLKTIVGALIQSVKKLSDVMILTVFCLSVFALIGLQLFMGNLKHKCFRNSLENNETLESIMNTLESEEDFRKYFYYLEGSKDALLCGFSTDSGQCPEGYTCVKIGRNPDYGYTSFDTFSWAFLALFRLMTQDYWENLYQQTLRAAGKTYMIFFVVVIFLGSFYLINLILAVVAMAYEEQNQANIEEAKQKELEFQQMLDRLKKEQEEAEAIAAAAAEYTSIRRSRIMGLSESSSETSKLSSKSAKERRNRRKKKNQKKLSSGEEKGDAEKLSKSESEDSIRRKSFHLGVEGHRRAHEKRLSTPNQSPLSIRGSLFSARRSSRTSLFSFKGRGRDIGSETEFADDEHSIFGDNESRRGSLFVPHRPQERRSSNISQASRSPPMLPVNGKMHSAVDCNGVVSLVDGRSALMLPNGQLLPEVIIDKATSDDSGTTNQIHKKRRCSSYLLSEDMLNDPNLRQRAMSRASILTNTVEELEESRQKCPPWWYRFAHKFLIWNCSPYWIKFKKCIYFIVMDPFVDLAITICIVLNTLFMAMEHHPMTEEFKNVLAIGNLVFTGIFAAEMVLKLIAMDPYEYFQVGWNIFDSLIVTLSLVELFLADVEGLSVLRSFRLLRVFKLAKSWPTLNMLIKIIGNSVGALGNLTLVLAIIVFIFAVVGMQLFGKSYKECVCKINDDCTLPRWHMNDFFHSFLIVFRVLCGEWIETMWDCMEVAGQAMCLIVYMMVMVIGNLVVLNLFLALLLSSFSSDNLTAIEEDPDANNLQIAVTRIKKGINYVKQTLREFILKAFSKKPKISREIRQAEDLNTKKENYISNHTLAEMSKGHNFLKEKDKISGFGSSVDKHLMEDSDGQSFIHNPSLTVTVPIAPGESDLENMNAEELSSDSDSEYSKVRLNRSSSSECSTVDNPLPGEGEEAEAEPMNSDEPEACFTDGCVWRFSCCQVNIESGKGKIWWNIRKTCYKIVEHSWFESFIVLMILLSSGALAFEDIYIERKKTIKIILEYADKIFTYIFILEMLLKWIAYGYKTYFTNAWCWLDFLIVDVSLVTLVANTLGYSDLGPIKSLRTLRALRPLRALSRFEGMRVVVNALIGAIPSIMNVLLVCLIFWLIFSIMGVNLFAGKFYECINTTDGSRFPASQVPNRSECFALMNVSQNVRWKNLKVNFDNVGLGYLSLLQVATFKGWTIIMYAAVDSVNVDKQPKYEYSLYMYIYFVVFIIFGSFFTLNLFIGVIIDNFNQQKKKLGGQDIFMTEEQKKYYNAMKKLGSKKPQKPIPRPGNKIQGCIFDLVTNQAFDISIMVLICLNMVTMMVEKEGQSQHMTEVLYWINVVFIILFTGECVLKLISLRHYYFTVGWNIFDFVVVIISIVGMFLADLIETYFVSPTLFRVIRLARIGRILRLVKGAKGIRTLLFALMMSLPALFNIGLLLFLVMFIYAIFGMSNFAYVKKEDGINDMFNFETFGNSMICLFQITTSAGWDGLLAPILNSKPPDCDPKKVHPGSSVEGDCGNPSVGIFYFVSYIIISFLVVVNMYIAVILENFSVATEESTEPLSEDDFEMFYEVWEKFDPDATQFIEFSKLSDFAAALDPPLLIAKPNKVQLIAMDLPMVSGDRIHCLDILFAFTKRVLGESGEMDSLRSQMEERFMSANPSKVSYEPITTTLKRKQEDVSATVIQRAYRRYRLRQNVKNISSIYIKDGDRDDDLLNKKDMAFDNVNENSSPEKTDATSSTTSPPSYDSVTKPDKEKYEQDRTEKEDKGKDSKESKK

As for `CC[C@H](C)[C@@H]1NC(=O)[C@@H]2CSSC[C@@H]3NC(=O)[C@H](C(C)C)NC(=O)[C@H](CC(C)C)NC(=O)[C@H](CC(N)=O)NC(=O)[C@@H]4CCCN4C(=O)[C@H](CCCNC(=N)N)NC(=O)[C@H](CSSC[C@H](NC(=O)[C@@H](N)CC(=O)O)C(=O)N[C@@H](CC(C)C)C(=O)NCC(=O)N[C@@H](Cc4ccccc4)C(=O)N[C@@H](CCCNC(=N)N)C(=O)N[C@@H](CCCNC(=N)N)C(=O)N[C@@H](CCCCN)C(=O)N2)NC(=O)[C@H](CSSC[C@@H](C(=O)N[C@@H](CCCCN)C(=O)N[C@@H](Cc2ccc(O)cc2)C(=O)N[C@H](C(=O)N[C@@H](Cc2ccccc2)C(N)=O)C(C)C)NC(=O)[C@H](Cc2c[nH]c4ccccc24)NC(=O)[C@H](CCCCN)NC(=O)[C@H](Cc2cnc[nH]2)NC(=O)[C@H]([C@@H](C)O)NC(=O)[C@H](CCCNC(=N)N)NC(=O)[C@H](CO)NC3=O)NC(=O)[C@H](CCCCN)NC(=O)[C@H](CC(=O)O)NC(=O)[C@H](CC(N)=O)NC(=O)[C@H](CC(=O)O)NC(=O)[C@@H]2CCCN2C1=O` [SEQ ID NO: 64] (H-DCLGFRRKCIPDNDKCCRPNLVCSRTHKWCKYVF-NH2; disulfide 2-17, 9-23, 16-30), the figures for the IC50 against hNav1.5 (IWQ Use Nav1.5), on hNav1.7 (setting [1]) and on hNav1.3 (setting [1]) were 17.6 µM, 6980 nM and 5900 nM, respectively.

In the case of `CC[C@H](C)[C@@H]1NC(=O)[C@@H]2CSSC[C@@H]3NC(=O)[C@H](C(C)C)NC(=O)[C@H](CC(C)C)NC(=O)[C@H](CC(N)=O)NC(=O)[C@@H]4CCCN4C(=O)[C@H](CCCNC(=N)N)NC(=O)[C@H](CSSC[C@H](NC(=O)[C@@H](N)CC(=O)O)C(=O)N[C@@H](CC(C)C)C(=O)NCC(=O)N[C@@H](Cc4ccccc4)C(=O)N[C@@H](CCSC)C(=O)N[C@@H](CCCNC(=N)N)C(=O)N[C@@H](CCCCN)C(=O)N2)NC(=O)[C@H](CSSC[C@@H](C(=O)N[C@@H](CCCCN)C(=O)N[C@@H](Cc2ccc(O)cc2)C(=O)N[C@H](C(=O)N[C@@H](Cc2ccccc2)C(N)=O)C(C)C)NC(=O)[C@H](Cc2c[nH]c4ccccc24)NC(=O)[C@H](CCCNC(=N)N)NC(=O)[C@H](Cc2cnc[nH]2)NC(=O)[C@H]([C@@H](C)O)NC(=O)[C@H](CCCNC(=N)N)NC(=O)[C@H](CO)NC3=O)NC(=O)[C@H](CCCCN)NC(=O)[C@H](CC(=O)O)NC(=O)[C@H](CC(N)=O)NC(=O)[C@H](CC(=O)O)NC(=O)[C@@H]2CCCN2C1=O` [SEQ ID NO: 72, [Arg28]GpTx-1], the IC50 was 8.95 µM on hNav1.5 (IWQ Use Nav1.5 (μM)); 80 nM at hNav1.7 (Table 23, use, […]); 130 nM at hNav1.3 (Table 23, use, […]).

For the compound `CC[C@H](C)[C@@H]1NC(=O)[C@@H]2CSSC[C@@H]3NC(=O)[C@H](C(C)C)NC(=O)[C@H](CC(C)C)NC(=O)[C@H](CC(N)=O)NC(=O)[C@@H]4CCCN4C(=O)[C@H](CCCNC(=N)N)NC(=O)[C@H](CSSC[C@H](NC(=O)[C@@H](N)Cc4c[nH]c5ccccc45)C(=O)N[C@@H](CC(C)C)C(=O)NCC(=O)N[C@@H](Cc4ccccc4)C(=O)N[C@@H](CCSC)C(=O)N[C@@H](CCCNC(=N)N)C(=O)N[C@@H](CCCCN)C(=O)N2)NC(=O)[C@H](CSSC[C@@H](C(=O)N[C@@H](CCCCN)C(=O)N[C@@H](Cc2ccc(O)cc2)C(=O)N[C@H](C(=O)N[C@@H](Cc2ccccc2)C(N)=O)C(C)C)NC(=O)[C@H](Cc2c[nH]c4ccccc24)NC(=O)[C@H](CCCCN)NC(=O)[C@H](Cc2cnc[nH]2)NC(=O)[C@H]([C@@H](C)O)NC(=O)[C@H](CCCNC(=N)N)NC(=O)[C@H](CO)NC3=O)NC(=O)[C@H](CCCCN)NC(=O)[C@H](CC(=O)O)NC(=O)[C@H](CC(N)=O)NC(=O)[C@H](CC(=O)O)NC(=O)[C@@H]2CCCN2C1=O` [SEQ ID NO: 81] (H-WCLGFMRKCIPDNDKCCRPNLVCSRTHKWCKYVF-NH2; disulfide 2-17, 9-23, 16-30), the values for the IC50 at hNav1.5 (IWQ Use Nav1.5), at hNav1.7 (setting [1]) and at hNav1.3 (setting [1]) were 8.79 µM, 50 nM and 100 nM, respectively.

`CC[C@H](C)[C@@H]1NC(=O)[C@@H]2CSSC[C@@H]3NC(=O)[C@H](C(C)C)NC(=O)[C@H](CC(C)C)NC(=O)[C@H](CC(N)=O)NC(=O)[C@@H]4CCCN4C(=O)[C@H](CCCNC(=N)N)NC(=O)[C@H](CSSC[C@H](NC(=O)[C@@H](N)CC(=O)O)C(=O)N[C@@H](CC(C)C)C(=O)NCC(=O)N[C@@H](Cc4c[nH]c5ccccc45)C(=O)N[C@@H](CCSC)C(=O)N[C@@H](CCCNC(=N)N)C(=O)N[C@@H](CCCCN)C(=O)N2)NC(=O)[C@H](CSSC[C@@H](C(=O)N[C@@H](CCCCN)C(=O)N[C@@H](Cc2ccc(O)cc2)C(=O)N[C@H](C(=O)N[C@@H](Cc2ccccc2)C(N)=O)C(C)C)NC(=O)[C@H](Cc2c[nH]c4ccccc24)NC(=O)[C@H](CCCCN)NC(=O)[C@H](Cc2cnc[nH]2)NC(=O)[C@H]([C@@H](C)O)NC(=O)[C@H](CCCNC(=N)N)NC(=O)[C@H](CO)NC3=O)NC(=O)[C@H](CCCCN)NC(=O)[C@H](CC(=O)O)NC(=O)[C@H](CC(N)=O)NC(=O)[C@H](CC(=O)O)NC(=O)[C@@H]2CCCN2C1=O` [SEQ ID NO: 82] (H-DCLGWMRKCIPDNDKCCRPNLVCSRTHKWCKYVF-NH2; disulfide 2-17, 9-23, 16-30): the IC50 is 9.32 µM on hNav1.5 (IonWorks Quattro, clamped to −110 mV, depolarized to −10 mV, 5 min after compound, n=2, read-out: IWQ Use Nav1.5); 150 nM on hNav1.7 (setting [1]); 110 nM on hNav1.3 (setting [1]).

For `CC[C@H](C)[C@@H]1NC(=O)[C@@H]2CSSC[C@@H]3NC(=O)[C@H](C(C)C)NC(=O)[C@H](CC(C)C)NC(=O)[C@H](CC(N)=O)NC(=O)[C@H](CO)NC(=O)[C@H](CO)NC(=O)[C@H](CCCNC(=N)N)NC(=O)[C@H](CSSC[C@H](NC(=O)[C@@H](N)CC(=O)O)C(=O)N[C@@H](CC(C)C)C(=O)NCC(=O)N[C@@H](Cc4ccccc4)C(=O)N[C@@H](CCSC)C(=O)N[C@@H](CCCNC(=N)N)C(=O)N[C@@H](CCCCN)C(=O)N2)NC(=O)[C@H](CSSC[C@@H](C(=O)N[C@@H](CCCCN)C(=O)N[C@@H](Cc2ccc(O)cc2)C(=O)N[C@H](C(=O)N[C@@H](Cc2ccccc2)C(N)=O)C(C)C)NC(=O)[C@H](Cc2c[nH]c4ccccc24)NC(=O)[C@H](CCCCN)NC(=O)[C@H](Cc2c[nH]cn2)NC(=O)[C@H]([C@@H](C)O)NC(=O)[C@H](CCCNC(=N)N)NC(=O)[C@H](CO)NC3=O)NC(=O)[C@H](CCCCN)NC(=O)[C@H](CC(=O)O)NC(=O)[C@H](CC(N)=O)NC(=O)[C@H](CC(=O)O)NC(=O)[C@@H]2CCCN2C1=O` [SEQ ID NO: 93, [Ser-Ser19]GpTx-1] (H-DCLGFMRKCIPDNDKCCRSSNLVCSRTHKWCKYVF-NH2; disulfide 2-17, 9-24, 16-31), the IC50 was 13.9 µM on hNav1.5 (IonWorks Quattro, Use, read-out: IWQ Use Nav1.5); 270 nM on hNav1.7 (Use); 320 nM at hNav1.3 (Use).
